{"source": "patent US20120208883A1", "about": "“TREATMENT OF ONCOLOGICAL DISEASES” (priority 2008, published 2012)", "key": {"[1]": {"tested_on": "NCI-H460 NSCLC tumor cell line", "assay": "Anti-proliferative activity in vitro (MTT assay), NCI-H460", "format": "cell-based", "conditions": "10 mM, 72 h of treatment, 0.1% FBS", "method": "(§1) The anti-proliferative activity of acetyl L-carnitine was evaluated in two different NSCLC tumor cell lines (NCI-H460 and NCI-H1650) and on one ovarian tumor cell line (A2780/Dx multidrug-resistant).\n(§2) Cells were seeded in 96-well tissue culture plates and treated for three days (NCI-H460 NSCLC) or six days (NCI-H1650 NSCLC and A2780/Dx cells) with acetyl L-carnitine (10 mM in 0.1% FBS). To test the effect of acetyl L-carnitine on cell growth, tumor cells were seeded in 96-well tissue culture plates at approximately 10% confluence and were allowed to attach and recover for at least 24 h. Tumor cells were exposed to treatment protocol for 72 h or 6 days in 0.1% FBS at 37° C., then medium culture (RPMI 1640) was removed and 100 μl/well of medium were added containing 25 μl/well of a solution 5 mg/ml tetrazolium salt (MTT) assay, (final 1 mg/ml). Plates were kept at 37° C. in incubator with 5% CO2 for 2 h for the formation of blue crystals. […] The cell survival was determined as optical density by a Multiskan spectrofluorimeter at 570 nm (Hansen M. B., et al., J. Immunol. Methods, 1989, 119, 203). Percentage of tumor cell inhibition in the presence of 10 mM acetyl L-carnitine was evaluated and compared with that obtained in the absence of acetyl L-carnitine applying the statistical comparison by means of the Mann-Whitney test."}, "[2]": {"tested_on": "NCI-H1650 NSCLC tumor cell line", "assay": "Anti-proliferative activity in vitro (MTT assay), NCI-H1650", "format": "cell-based", "conditions": "10 mM, 6 days of treatment, 0.1% FBS", "method": "as §1, §2"}, "[3]": {"tested_on": "A2780/Dx multidrug-resistant ovarian tumor cell line", "assay": "Anti-proliferative activity in vitro (MTT assay), A2780/Dx", "format": "cell-based", "conditions": "10 mM, 6 days of treatment, 0.1% FBS", "method": "as §1, §2"}, "NCI-H460 cell line": {"tested_on": "NCI-H460 cell line", "assay": "Anti-tumoral activity in vivo, NCI-H460 subcutaneous tumor", "parameters": "species or system CD1 nude mice", "conditions": "acetyl L-carnitine 200 mg/kg po qdx5/wx4w; cisplatin 4 mg/kg ip q4dx5", "method": "(§3) Anti-tumoral activity in vivo (CD1 Nude mouse) using five different tumoral cell lines.\n(§4) The tumors were generated by subcutaneous injection in the right flank of CD1 nude mice of NCI-H460 tumor cells (3×10^6/100 μl/mouse), in 0.1 ml medium Tc199.\n(§5) Treatments started when tumors were palpable, 8 mice per group were used.\n(§6) Acetyl L-carnitine was administered po (oral administration) at 200 mg/kg according to the schedule qdx5/w (once per day for 5 days per week).\n(§7) Tumor volume (TV) was calculated biweekly by measuring the diameter of the tumors with a Vernier caliper according to the formula\n(§8) where d and D are the shortest and longest diameters, respectively. The efficacy of the drug treatment was assessed as the tumor volume inhibition according to the formula reported underneath: […]"}, "[4]": {"tested_on": "NCI-H460 metastatic clone", "assay": "Anti-tumoral and antimetastatic activity in vivo, NCI-H460 metastatic clone", "parameters": "species or system CD1 nude mice", "conditions": "for antimetastatic effect on spontaneous lung metastases: NCI-H460 metastatic clone injected subcutaneously; for % inhibition of lung metastases / TVI %: acetyl L-carnitine 200 mg/kg po qdx5/wx4w, cisplatin 5 mg/kg iv q7dx4", "method": "as §3, §4, §5, §6, §7, §8"}, "[5]": {"tested_on": "Human A549 NSCLC cell line", "assay": "Anti-tumoral activity in vivo, A549 subcutaneous tumor", "parameters": "species or system CD1 nude mice", "conditions": "acetyl L-carnitine 200 mg/kg po qdx5/wx4w, cisplatin 4 mg/kg ip q4dx6", "method": "as §3\nThe tumors were generated by subcutaneous injection in the right flank of CD1 nude mice of A549 tumor cells (3×10^6/100 μl/mouse) in 0.1 ml medium Tc199.\nas §5, §6, §7, §8"}, "NCI-H1650 cell line": {"tested_on": "NCI-H1650 cell line", "assay": "Anti-tumoral activity in vivo, NCI-H1650 subcutaneous tumor", "parameters": "species or system CD1 nude mice", "conditions": "acetyl L-carnitine 200 mg/kg po qdx5/wx3w; cisplatin 4 mg/kg ip q4dx6", "method": "as §3\nThe tumors were generated by subcutaneous injection in the right flank of CD1 nude mice of NCI-H1650 tumor cells (5×10^6/200 μl/mouse) in suspension in 0.1 ml medium Tc199+0.1 ml Matrigel.\nas §5, §6, §7, §8"}, "A2780 ADR cell line": {"tested_on": "A2780 ADR cell line", "assay": "Anti-tumoral activity in vivo, A2780 ADR subcutaneous tumor", "parameters": "species or system CD1 nude mice", "conditions": "acetyl L-carnitine 200 mg/kg po qdx5/wx3w, doxorubicin 6 mg/kg iv q7dx3", "method": "as §3\nThe tumors were generated by subcutaneous injection in the right flank of CD1 nude mice of A2780 ADR tumor cells (5×10^6/100 μl/mouse) in 0.1 ml medium Tc199.\nas §5, §6\nThe reference compound doxorubicin was delivered intravenously according to the schedule q7dx3, at a dose of 6 mg/kg.\nas §7, §8"}, "[6]": {"tested_on": "SJSA-1 (with amplification of mdm2) osteosarcoma cells", "assay": "Antiproliferative activity on SJSA-1 osteosarcoma cells (MTT assay)", "format": "cell-based", "method": "The evaluation of antiproliferative activity was carried out by MTT assay."}, "tumour mass": {"tested_on": "tumour mass", "conditions": "WO/2000/06134; ALC 100 mg/kg orally; cited from earlier work"}, "[7]": {"tested_on": "NCI-H460 non-small cell lung carcinoma", "assay": "Antitumor activity of L-carnitine in combination with cisplatin against NCI-H460", "format": "in vivo", "method": "Treatments started three days after tumor injection. To evaluate the antitumor activity, tumor diameters were measured with a Vernier caliper. […] When tumors reached a volume of 1-2 cm^3, mice were sacrificed by cervical dislocation. Body weight recording was carried out through the study and mortality was noted."}}}
{"compound": "CC(=O)O[C@H](CC(=O)[O-])C[N+](C)(C)C", "note": "[Acetyl L-carnitine, acetyl L-carnitine]", "values": [{"measurement": "Tumor cell inhibition %", "setting": "[1]; P <0.001", "value": 32, "unit": "%"}, {"measurement": "Absorbance ± SE at 570 nm", "setting": "[1]; control 745 ± 18", "value": "509 ± 8"}, {"measurement": "Tumor cell inhibition %", "setting": "[2]; P <0.001", "value": 41, "unit": "%"}, {"measurement": "Absorbance ± SE at 570 nm", "setting": "[2]; control 484 ± 25", "value": "285 ± 11"}, {"measurement": "Tumor cell inhibition %", "setting": "[3]", "value": 29, "unit": "%"}, {"measurement": "Absorbance ± SE at 570 nm", "setting": "[3]; control 331 ± 18", "value": "234 ± 16"}, {"measurement": "TVI % ± SE", "setting": "NCI-H460 cell line", "value": "40 ± 6", "unit": "%"}, {"measurement": "antimetastatic effect on spontaneous lung metastases", "setting": "[4]", "value": "statistically significant antimetastatic effect"}, {"measurement": "% inhibition of lung metastases", "setting": "[4]", "value": 50, "unit": "%"}, {"measurement": "TVI %", "setting": "[4]", "value": "34 ± 5", "unit": "%"}, {"measurement": "TVI %", "setting": "[5]", "value": "27 ± 3", "unit": "%"}, {"measurement": "TVI %", "setting": "[5]; listed as acetyl L-carnitine", "value": 27, "unit": "%"}, {"measurement": "TVI %", "setting": "NCI-H1650 cell line", "value": "19 ± 4", "unit": "%"}, {"measurement": "TVI %", "setting": "A2780 ADR cell line", "value": "28 ± 11", "unit": "%"}, {"measurement": "TVI %", "setting": "A2780 ADR cell line; listed as acetyl L-carnitine", "value": 28, "unit": "%"}, {"measurement": "Tumor cell inhibition %", "setting": "[6]; 10 mM, 72 h of exposure followed by 72 h of recovery, 0.1% FBS, P 0.0037 vs control", "value": 24, "unit": "%"}, {"measurement": "antiproliferative activity compared with cisplatin", "setting": "[6]; 72 h of exposure, medium containing 0.1% FBS", "value": "statistically significant more active than cisplatin"}, {"measurement": "effect on tumour growth", "setting": "tumour mass", "value": "no effect on tumour growth"}]}
{"compound": "N.N.[Cl][Pt][Cl]", "note": "[Cisplatin, cisplatin, reference compound]", "values": [{"measurement": "TVI % ± SE", "setting": "NCI-H460 cell line", "value": "41 ± 5", "unit": "%"}, {"measurement": "antimetastatic effect on spontaneous lung metastases", "setting": "[4]", "value": "ineffective"}, {"measurement": "% inhibition of lung metastases", "setting": "[4]", "value": 0, "unit": "%"}, {"measurement": "TVI %", "setting": "[4]", "value": "41 ± 5", "unit": "%"}, {"measurement": "TVI %", "setting": "[5]", "value": "49 ± 13", "unit": "%"}, {"measurement": "TVI %", "setting": "[5]; listed as cisplatin", "value": 49, "unit": "%"}, {"measurement": "TVI %", "setting": "NCI-H1650 cell line", "value": "23 ± 3", "unit": "%"}, {"measurement": "TVI %", "setting": "A2780 ADR cell line", "value": 60, "unit": "%"}, {"measurement": "TVI % ± SE +32", "setting": "[7]; day +32, cisplatin 4 mg/kg ip q4d/wx3w, L-carnitine 200 mg/kg po qdx5/wx3w", "value": "80 ± 21", "unit": "%"}]}
{"compound": "COc1cccc2c1C(=O)c1c(O)c3c(c(O)c1C2=O)C[C@@](O)(C(=O)CO)C[C@@H]3O[C@H]1C[C@H](N)[C@H](O)[C@H](C)O1", "note": "[Doxorubicin, doxorubicin, reference compound]", "values": [{"measurement": "TVI %", "setting": "A2780 ADR cell line", "value": "60 ± 11", "unit": "%"}]}
{"compound": "C[N+](C)(C)C[C@H](O)CC(=O)[O-]", "note": "[L-carnitine]", "values": [{"measurement": "potentiation of the cytotoxic activity of cisplatin", "setting": "[7]; L-carnitine 200 mg/mice/day given chronically", "value": "not able to potentiate the cytotoxic activity of cisplatin"}]}
{"compound": "CC(=O)O[C@H]1C(=O)[C@@]2(C)[C@H]([C@H](OC(=O)c3ccccc3)[C@]3(O)C[C@H](OC(=O)[C@H](O)[C@@H](NC(=O)c4ccccc4)c4ccccc4)C(C)=C1C3(C)C)[C@]1(OC(C)=O)CO[C@@H]1C[C@@H]2O", "note": "[Paclitaxel, paclitaxel, reference compound]", "values": [{"measurement": "inhibition of tumour growth (TVI)", "setting": "tumour mass", "value": 88, "unit": "%"}]}
{"compound": "CC(=O)O[C@H](CC(=O)[O-])C[N+](C)(C)C", "note": "[acetyl L-carnitine (ALC)]", "values": [{"measurement": "effect on the formation of lung metastases", "setting": "tumour mass", "value": "significant inhibitory effect"}]}
